In US5541171A, “Orally administrable pharmaceutical composition” (priority 1981, dated 1996):
Entries after “also recorded” stand apart in the source; their conditions may differ.

Assays:
[1] = tested on: colitis, Crohn's disease, idiopathic proctitis and chronic arthritis; conditions: in vivo; cited from earlier work
[2] = in vivo
Procedure: Patients completed diary cards throughout 16 weeks and were asked to note any side effects; they were seen after 4, 12 and 16 weeks. On completion of the trial a further sigmoidoscopy was performed to ensure the muscosa appeared normal. Patients were seen promptly if symptoms recurred and a sigmoidoscopy was performed at that time. A relapse was defined as a recurrence of symptoms with increased stool frequency and blood loss with sigmoidoscopic changes of contact or spontaneous mucosal haemorrhage (grade 3) or the presence of pus with bleeding and ulceration (grade 4). Blood was taken for a routine blood count and examination of the film at each clinic attendance and measurements of the serum electrolytes and liver function tests were performed initially and after 16 weeks. The study, which was randomised and double-blind in design, involved using identical placebo tablets for both sulphasalazine and 5-ASA; each patient was given two sets of tablets with either active 5-ASA and placebo sulphasalazine or placebo 5-ASA and active sulphasalazine. The patient's usual dose of sulphasalazine was continued with a minimum dose of 2 grams daily. The tablets of 5-ASA contained 400 mg (ie the amount of 5-ASA contained in 1 gram of sulphasalazine). […] Compliance was checked at each hospital visit by counting the number of tablets returned. […]

[3] = tested on: ulcerative colitis or proctitis; assay: Randomised double-blind 16 week maintenance trial in colitis: relapse; type: in vivo, patients
Procedure: Seventy-two patients who were in remission with ulcerative colitis or proctitis and taking at least 4 sulphasalazine tablets each day gave their informed consent to a clinical trial. Remission was defined as the passage of three or fewer stools each day without blood or slime during the previous month. Thirty-six patients were male and 36 female. Sigmoidoscopy with rectal biopsy was performed initially and patients only entered the trial if the mucosa was normal (grade 1) or oedematous (grade 2). Biopsies were coded and reviewed by a pathologist who graded them as 1 (normal) or grades 2, 3 or 4 representing mild, moderate or severe inflammatory change.
At least 3 tablets of 5-ASA were taken daily (1200 mg) with an increased dose of 1 tablet for each gram of sulphasalazine above the minimum entry dose of 2 grams for patients taking a high dose of sulphasalazine. […]

[4] = cited from earlier work
[5] = Serum sulphapyridine levels after ingestion of coated capsules (HPLC)
Procedure: Six convalescent patients, 3 male and 3 female with a mean age of 57 years, from a general medical ward gave informed consent to a clinical trial. […] The thickness of the coat was checked using a micrometer to establish the range of thickness and to measure both the wide and narrow end of the capsule. Each capsule contained barium sulphate (300 mg) potato starch (20 mg) and sulphapyridine (300 mg) as a convenient marker Plain abdominal X-rays were taken at 5, 8 and 12 hours after ingestion and blood samples at 0, 3, 5, 7, 9, 12 and 24 hours after ingestion to assay sulphapyridine levels.
Sulphapyridine was analysed by high pressure liquid chromotography (HPLC) using a modification of the method described by Shaw et al (J. Pharm. Pharmacol. 1980;32;67). The analysis was performed on a LiChrosorb 10 RP 18 bonded silica reversed phase column (Merck). The mobile phase was acetonitrile--0.05M potassium dihydrogen phosphate solution (20:80) containing 0.1 per cent tetrabutyl ammonium hydroxide. Sulphapyridine was detected spectrometrically at 260 nm. Serum samples were treated with an equal volume of ethanol to precipitate plasma proteins and after centrifugation, the supernatant was injected on to the chromatograph. Sulphapyridine concentration was read directly from a calibration curve which was linear over the range 1-25 μg/ml (R=0.99).

O=C(O)c1cc(/N=N/c2ccc(S(=O)(=O)Nc3ccccn3)cc2)ccc1O [sulphasalazine, Salicylazosulphapyridine]
usefulness in treatment [1]: useful in the treatment of colitis, Crohn's disease, idiopathic proctitis and chronic arthritis | side effects (headache, nausea or indigestion), comparison between groups [2]: no difference | Relapses ([3]; 16 weeks, 34 patients on 5-ASA (coated tablets, at least 1200 mg daily), 33 on sulphasalazine (minimum 2 grams daily)): 6 patients | absorption after oral administration [4]: only absorbed to a limited extent before reaching the colon

Nc1ccc(O)c(C(=O)O)c1 [Example 5-ASA, 5-amino-salicylic acid]
usefulness in treatment [1]: pharmacologically active agent in the treatment of colonic and rectal ailments | side effects (headache, nausea or indigestion), comparison between groups [2]: no difference | significance of difference in relapses between 5-ASA and sulphasalazine ([3]; chi squared): not statistically significant; also recorded: p = NS | clearance / excretion ([4]; in vivo): excreted rapidly after acetylation | serum levels ([4]; in vivo): very low

Nc1ccc(S(=O)(=O)Nc2ccccn2)cc1 [sulphapyridine]
drug detected in serum 3 hours after ingestion ([5]; 3 hours, any patient): No drug was detected | time of maximal serum levels ([5]; human, in vivo): 12 or 24 hours after ingestion | patients with drug detected in serum 5 hours after ingestion ([5]; in vivo): 2 patients | clearance / excretion ([4]; in vivo): slowly cleared from the serum | absorption after oral administration [4]: almost entirely absorbed from the small intestine before reaching the colon
